Patent US12697328B2, “Methods for treating metastasis with cathepsin C inhibitors” (Shanghai Institute of Nutrition and Health, Chinese Academy …, priority 2020, dated 2026)

B1: rhPR3: recombinant human active PR3 (protein, UniProt P24158 28-248, looked up)
Myeloblastin: IVGGHEAQPHSRPYMASLQMRGNPGSHFCGGTLIHPSFVLTAAHCLRDIPQRLVNVVLGAHNVRTQEPTQQHFSVAQVFLNNYDAENKLNDVLLIQLSSPANLSASVATVQLPQQDQPVPHGTQCLAMGWGRVGAHDPPAQVLQELNVTVVTFFCRPHNICTFVPRRKAGICFGDSGGPLICDGIIQGIDSFVIWGCATRLFPDFFTRVALYVDWIRSTLR

Legend:
Type in all cases: cell-based
membrane-bound PR3 = target: T1, membrane-bound PR3 (Homo sapiens, UniProt P24158); test: Membrane-bound PR3 activity of neutrophils cultured with CM of SCP28 cells overexpressing CTSC; settings: Sivelestat 10 μM, Alvelestat 10 μM, CTSGi 20 μM, FIG. 7D
T1 construct: endogenous in cells; host or cells: human peripheral-blood neutrophils (whole-cell suspension)
T1 sequence (P24158 28-248): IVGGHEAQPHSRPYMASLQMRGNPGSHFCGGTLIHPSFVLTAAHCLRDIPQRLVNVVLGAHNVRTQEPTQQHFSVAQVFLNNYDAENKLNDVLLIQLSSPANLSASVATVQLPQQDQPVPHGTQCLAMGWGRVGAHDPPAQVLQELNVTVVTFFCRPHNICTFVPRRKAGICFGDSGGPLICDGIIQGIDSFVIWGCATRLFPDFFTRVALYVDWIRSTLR
Protocol: The procedure of enzyme activity assays were conducted as previously reported (Korkmaz et aL, “Neutrophil proteinase 3 and dipeptidyl peptidase I (cathepsin C) as pharmacological targets in granulomatosis with polyangiitis (Wegener granulomatosis),” Semin. Immunopathol. 35:411-421 (2008)). The PR3 or NE enzymatic activity was quantified by detecting the rate of hydrolysis of the PR3-specific substrate (Abz)-VADnorVADRQ-(EDDnp) or NE specific substrate (Abz)-APEEIMRRQ-(EDDnp) by cell suspension or free enzymes. To analyze membrane-bound PR3 activity, neutrophils were cultured in cancer cell CM or non-conditioned medium, and treated with DMSO or various inhibitors, including Sivelestat (10 μM), Alvelestat (10 μM) and CTSGi (20 μM) for 30-45 min at 37° C. Then, cells were suspended in activity buffer (5×10^6 per ml, PBS, 4 mM EGTA, pH 7.4) with 15 μM of the PR3-specific substrate, and the kinetic of hydrolysis was followed by measuring the fluorescence at λex=320 nm and λem=420 nm. For activation of PR3 in isolated plasma membrane fraction, recombinant human CTSC (1071-CY, R&D) was activated according to the manufacturer's instruction. […] The activity of free PR3 and NE were measured in the assay buffer (50 mM Tris, 750 mM NaCl, pH 7.4) with 15 μM specific substrates by recording the fluorescence at λex=320 nm and λem=420 nm. […]

IL-1β = IL-1β secretion of neutrophils pre-treated with CM of SCP28 cancer cells (ELISA); settings: human neutrophils pre-treated with CM of SCP28 with CTSC overexpressed; FIG. 7H
Protocol: ELISA kits were used to assay the levels of human IL-1β (88-7621-88, ThermoFisher), mouse IL-1β (432604, Biolegend), mouse IL6 (88-7064-88, ThermoFisher), mouse CCL3 (88-56013-88, ThermoFisher) in cell culture supernatants or sera according to the manufacturer's instruction. Briefly, 96-well MaxiSorp™ ELISA Plates (44-2404, ThermoFisher) was coated with capture antibody overnight at 4° C. in coating buffer (15 mM of Na2CO3, 35 mM of NaHCO3, at pH 9.6). After three washes in PBS, the wells were blocked with 5% BSA in PBS for 45 min at room temperature. Then, 100 μl of cell culture supernatants or sera and standard samples were added into the wells and incubated for 2 h at room temperature, and the plates were washed three times with washing buffer (1% BSA, 0.05% Tween-20 in PBS). Next, biotin-conjugated detection antibody in 2.5% BSA was added into the wells and incubated for 2 h at room temperature. After three washes with washing buffer, HRP-streptavidin was incubated for 45 min at room temperature. Then, signals were detected using TMB solution and read at 450 nm.

murine neutrophils = test: Reactive oxygen species (ROS) analysis of neutrophils pre-treated with 4T07 conditioned medium; settings: 4T07 CM with CTSC overexpressed, inhibitors 10 μM, FIGS. 8C, 8E
Protocol: To measure the ROS levels, neutrophils were cultured in cancer cell CM or non-conditioned medium, and treated with DMSO or various inhibitors, including Sivelestat (10 μM), BAY11-7082 (10 μM) and SB203580 (10 μM) for 1 h at 37° C. Cells were then harvested and resuspended in assay buffer (PBS, 4 mM EGTA, pH 7.4, containing 10 μM CM-H2DCFDA, Invitrogen), incubated for 15 min at 37° C. in dark, washed with pre-chilled PBS, followed by FACS analysis within 30 min.
The release of reactive oxygen species (ROS) by neutrophils is known to induce NET formation. […] Commum. 6, 6673 (2015).
ROS analysis of murine neutrophils pre-treated with 4T07 conditioned medium show increased ROS production results from CTSC overexpression (FIG. 8E).

4T07 cancer cells = test: Three-dimensional spheroid culture of 4T07 cells in neutrophil medium; settings: rmTSP-1 alone, FIG. 8H
Protocol: The procedure of 3D spheroids culture assay was previously reported (Taylor et al., “Lysyl oxidase contributes to mechanotransduction-mediated regulation of transforming growth factor-beta signaling in breast cancer cells,” Neoplasia 13:406-418 (2011)). Briefly, 4T07 cells (200 per well) were cultured in 48-well plates on 100% growth-factor-reduced Matrigel (356231, BD) cushions in spheroid medium (a 1:1 mixture of 1% FBS DMEM and medium from neutrophils cultured in the cancer cell CM, 50% Matrigel supplemented with 50 μg/ml mTSP-1 (7859-TH-050). Upon completed gelation, 250 μl of culture medium (a 1:1 mixture of 1% FBS DMEM and medium from neutrophils cultured in the cancer cell CM) with 10 μg/ml mTSP-1 (7859-TH-050) was added to each well and the culture medium was changed every three days. On day 7-10, the numbers of the spheroids were analyzed.
When both rmTSP-1 and an IL6-blocking antibody are added to CTSC overexpressing 4T07 conditioned medium, spheroid growth is inhibited (FIG. 8I, left panel). […] The inhibitory effects of α-IL6, DNase I, and a combination thereof, on spheroid formation can be seen in the images provided in FIG. 8I.

p38 = p38 phosphorylation in neutrophils pre-treated with 4T1 conditioned medium and/or rhPR3; settings: murine neutrophils pre-treated with 4T1 CM and/or rhPR3, regardless of CTSC knockdown; FIG. 8D
Protocol: Cultured cells were collected by scraper or trypsinized and then lysed with lysis buffer (50 mM Tris-HCl, 150 mM NaCl, 1% NP-40 detergent, 0.5% sodium deoxycholate, 0.1% SDS with phosphatase and protease inhibitors), and dispersed tissue were homogenized in RIPA buffer on ice for 15 min, followed by centrifugation at 17,000 g for 15 min. The protein concentration was measured with a BCA Protein Assay Kit. Proteins of […] were loaded for membrane proteins, IL-1β processing, p65 phosphorylation and the other assays, respectively, and separated on 8-12% SDS-polyacrylamide gel. For cancer cell conditioned medium (CM) collection, cells were grown to ~80% confluence in 10 cm culture dishes. After three times washing with serum-free medium at 37° C., the cells were incubated in serum-free medium at 37° C. for 24 h. The CM were collected, centrifuged at 2,000 g for 10 min, filtrated by 0.22 μm filters, stored at −80° C. until used. The secreted proteins in CM were collected by TCA precipitation. Briefly, 25% v/v TCA was added into 1 ml CM with phosphatase and protease inhibitors, incubated overnight at 4° C., and then centrifuged at 20,000 g for 60 min, after which the supernatant was discarded and the pellet was washed twice with 1 ml pre-chilled acetone, centrifuged again at 20,000 g for 5 min at 4° C. […]

| Molecule | IL-1β levels (secretion) of neutrophils (IL-1β) | ROS production / ROS levels (murine neutrophils) | other results |
| --- | --- | --- | --- |
| Cc1c(-c2ccnn2C)cc(C(=O)NCc2ccc(S(C)(=O)=O)cn2)c(=O)n1-c1cccc(C(F)(F)F)c1 [Alvelestat] | only PR3 inhibitor Silvelestat reduces | – | upregulated PR3 activity resulting from CTSC overexpression (membrane-bound PR3): no effect |
| Cc1ccc(S(=O)(=O)/C=C/C#N)cc1 [BAY 11-7082] | does not reduce | no effect | – |
| C[S+]([O-])c1ccc(-c2nc(-c3ccncc3)c(-c3ccc(F)cc3)[nH]2)cc1 (centres unmarked) [SB203580] | – | significantly reduces | – |
| rmTSP-1: recombinant murine TSP-1, a metastasis-suppressive ECM protein | – | – | spheroid growth of 4T07 cancer cells (4T07 cancer cells; CTSC overexpressing 4T07 conditioned medium): does not block; spheroid growth of 4T07 cancer cells (4T07 cancer cells; neutrophil medium pre-treated with PMA): unable to block |
| B1 | – | – | p38 phosphorylation (p38): increased |
